Article PMC8761912, “Cryptosporidium parvum Pyruvate Kinase Inhibitors With in vivo Anti-cryptosporidial Efficacy” (Frontiers in Microbiology, 2022)
“Also recorded” adds a separate entry of the source.

Legend:
[1] = Tolerability in uninfected mice, daily oral gavage; type: in vivo; conditions: 10 mg/kg daily oral administration, 8 days
Protocol: (§1) Eight weeks old male interferon-gamma knockout (IFN-γ KO) mice (B6.129S7-Ifng^TM1Ts/J) were purchased from The Jackson Laboratory, United States, and allowed to quarantine and acclimatize for 1 week before the commencement of experiments. Before the start of the infection assays in mice, the tolerability of each inhibitor was determined by daily oral gavage with varying dosages (0–10 mg/kg mouse bodyweight) in groups of mice (n = 3 mice per group) for 8 days. During this period, mice were monitored daily for any changes in physical and mental activity, feeding, body weight, body temperature, fur condition, and body posture. […] Mice were divided into infected and uninfected groups (n = 3 mice per group) and each individual mouse was housed in a separate cage lined with sterile gauze bedding. Each mouse from the infected group was infected by oral gavage administration of 10^4 C. parvum AUCP-1 isolate oocysts suspended in 50 μl of PBS. Beginning day 3 PI, groups of mice were orally treated with CpPyK inhibitors (at the specified doses), sham (100 μl of 5% DMSO in PBS), or 1,000 mg/kg paromomycin (in sterile water) once daily for a total of 8 days. Fecal pellets were collected daily in individual sterile 15 ml tubes, and submerged in an equivalent volume of PBS containing a cocktail of penicillin (100 units/ml), streptomycin (100 μg/ml), chloramphenicol (34 μg/ml), and amphotericin (0.25 μg/ml), and stored at 4°C until use. Three independent replicate infection assays were performed. Mice were sacrificed at day 11 PI, and 5 cm of the distal small intestine just anterior to the cecum was resected and submerged in 10% neutral buffered formalin and submitted for histopathological processing in the Comparative Biosciences Histology Laboratory at the University of Illinois at Urbana-Champaign. Briefly, intestinal tissues preserved in 10% neutral buffered formalin were washed in 70% ethanol, embedded in paraffin, and sectioned transversely at a thickness of 5 μm. Sections were stained with hematoxylin and eosin. The slides were imaged using a Zeiss microscope fitted with a color camera.

[2] = In vitro compound cytotoxicity assay (WST-1); type: cell-based; conditions: human, uninfected HCT-8 cells
Protocol: Compounds were tested for cytotoxicity in human ileocecal colorectal adenocarcinoma cells [HCT-8 (HRT-18); ATCC® CCL-244™, CVCL_2478] by using the cell proliferation reagent WST-1 (Roche) according to the manufacturer’s protocol. The WST-1 assay is a quantitative colorimetric assay for measurement of metabolically active cells. This assay is based on the reduction of the tetrazolium salt (WST-1) by viable cells. About 5 × 10^4 HCT-8 cells were seeded per well in 96-well plates and grown overnight in 200 μl of RPMI-1640 medium (without phenol red) (Gibco) supplemented with 2.5 g/L of glucose, 1 mM sodium pyruvate, 1.5 g/L of sodium bicarbonate, 10% heat-inactivated FBS (Gibco), and 1 × Antibiotic-Antimycotic (Gibco) at 37°C with 5% CO2 in a humidified incubator. Upon reaching 80–90% confluency, cells were treated with the chemical compounds reconstituted in DMSO for 24 h. The volume of DMSO was kept below 1% of the total culture volume in all the wells to avoid DMSO cytotoxicity. Control wells received equivalent volumes of DMSO used in the reconstituted compounds. After 24 h of culture, 10 μl of the WST-1 reagent was added to each well, and the plates were incubated for 1 h at 37°C with 5% CO2 under dark conditions. The plates were shaken thoroughly and 150 μl of the medium from each well was transferred to a new clear flat-bottom black 96-well plate (Corning). Absorbance was read at a test wavelength of 440 nm and a reference wavelength of 690 nm using a multi-mode microplate reader (Spectra Max iD3; Molecular Devices, United States). The mean percent toxicity (MPT) of each compound was derived by dividing the difference in absorbance (OD) between the compound-treated cells and the DMSO-treated cells by the absorbance from the DMSO-treated cells and multiplying the product by 100:
(2) MPT=[(MeanODDMSO-treated-MeanODCompound-treated)÷MeanODDMSO-treated]×100.
The half maximal cytotoxic concentration (CC50) values were determined by using non-linear regression analysis in GraphPad PRISM® v8. Assays were performed in triplicate and repeated three times.

[3] = test system: C. parvum; assay: Histopathology of distal small intestine of C. parvum-infected IFN-γ KO mice; type: in vivo, Cryptosporidium parvum; conditions: sacrificed day 11 PI
Protocol: as §1

[4] = test system: C. parvum; assay: In vivo efficacy in C. parvum-infected IFN-γ KO mice, fecal oocysts load by qPCR; set-up: species or system Cryptosporidium parvum; conditions: for relative potency among the treatments (oocysts load): 2.5 mg/kg NSC638080, NSC303244, NSC252172, 5 mg/kg NSC234945, paromomycin 1,000 mg/kg; for reduction in oocysts load compared to untreated mice / oocysts load compared to untreated mice: 10 mg/kg oral once daily; for reduction in oocysts load compared to untreated mice: day 9 PI; for oocysts load compared to untreated mice / potency, fold higher than paromomycin (1,000 mg/kg): day 10 PI; for potency, fold higher than paromomycin (1,000 mg/kg): 10 mg/kg
Protocol: as §1
DNA was isolated from 250 mg of feces collected from individual mice using the QIAamp® PowerFecal® Pro DNA kit (Qiagen, United States) following the manufacturer’s protocol. Oocysts load per gram of feces was measured by quantitative real time PCR (qPCR) analysis of the Cp18s rRNA gene (GenBank accession number AF164102) using gene-specific primers: 5′-[…]-3′ (Forward) and 5′-[…]-3′ (Reverse), described previously ([Parr et al., 2007]). To generate a quantification standard curve, fecal samples were obtained from uninfected mice and spiked with 10^8 C. parvum oocysts per gram of feces, followed by isolation of DNA as described above. Ten-fold serial dilutions of the extracted DNA were made and used as quantification standards for qPCR. C. parvum oocysts load quantification for the test mice was performed using DNA samples from the infected feces. Each 20 μl qPCR reaction contained 10 μl of PowerUp™ SYBR™ Green Master Mix (Applied Biosystems, United States), 500 nM of each primer, and 2 μl of DNA template. After 2 min of initial denaturation at 95°C, 40 cycles of denaturation at 95°C for 15 sec and annealing/extension at 60°C for 1 min were performed in a 7500 Real-Time PCR System (Applied Biosystems, United States). The oocyst load per gram of feces was derived by the 7500-system software using the generated quantification standard curves (Supplementary Figure 1).

[5] = 10 mg/kg daily oral from day 3 PI
[6] = 2.5 mg/kg daily oral from day 3 PI
[7] = 2.5 mg/kg oral once daily from day 3 PI for 8 days

SMILES	toxicity signs in uninfected mice [1]	CC50 at 24 h [2] [µM]	intestinal pathology (histology, distal small intestine) [3, 5]	relative potency among the treatments (oocysts load) [4]	oocysts load by day 9 PI vs other treatments and untreated group ([4]; 5 mg/kg oral once daily from day 3 PI)	load of C. parvum oocysts shed in feces ([4]; 5 mg/kg oral once daily from day 3 PI for 8 days)	reduction in oocysts load compared to untreated mice [4]	oocysts load compared to untreated mice [4]	potency, fold higher than paromomycin (1,000 mg/kg) [4]	intestinal pathology (histology, distal small intestine) [3, 6]	load of C. parvum oocysts shed in feces [4, 7]
c1ccc(-c2nnc(-c3ccccn3)[nH]2)nc1 [NSC234945, 2-(3-pyridin-2-yl-1H-1,2,4-triazol-5-yl)pyridine]	did not induce any toxicity signs	432	best efficacy; also recorded: notably reduced pathological changes	highest potency	significantly (P < 0.05) lower oocysts loads	significant reduction	about threefold reduction in oocysts load	about ninefold lower oocysts load	about 2.5 fold		
N#C/C(=C\c1cc(O)c(O)c(O)c1)C(N)=O [NSC638080, (E)-2-cyano-3-(3,4,5-trihydroxyphenyl)prop-2-enamide]	did not induce any toxicity signs	750		least efficacy						reduced intestinal pathology	significant reduction
CCOc1ccc(/C=C2\CCc3ccccc3C2=O)cc1 [NSC252172, (2E)-2-[(4-ethoxyphenyl)methylidene]-3,4-dihydronaphthalen-1-one]	did not induce any toxicity signs	266	notably reduced pathological changes				about threefold reduction in oocysts load	about ninefold lower oocysts load	about 2.5 fold		significant reduction
Cc1cc2c(c(C#N)c1C)NC=NC2C (stereo not shown) [NSC303244, 4,6,7-trimethyl-1,4-dihydroquinazoline-8-carbonitrile]	did not induce any toxicity signs	660								reduced intestinal pathology	significant reduction
